Experimental findings from paper PMC5154195, “Ester-Modified Cyclometalated Iridium(III) Complexes as Mitochondria-Targeting Anticancer Agents” (Scientific Reports, 2016) are described below.

For data set [1], the system named is A549 (human lung adenocarcinoma epithelial) cells. Kind of data set: MTT cell viability assay, A549. The format is cell-based. As to conditions: 44 h + 4 h MTT, read-out: IC50 (50% inhibition of cell viability). Here is the method:
(§1) HeLa, A549, A549R, MCF-7 and HepG2 cells were obtained from Experimental Animal Centre of Sun Yat-Sen University (Guangzhou, China). Cells were cultured in DMEM (Dulbecco’s modified Eagle’s medium, Gibco BRL) or RPMI 1640 (Roswell Park Memorial Institute 1640, Gibco BRL) medium, containing 10% FBS (fetal bovine serum, Gibco BRL), 100 μg/mL streptomycin and 100 U/mL penicillin (Gibco BRL).
(§2) The cytotoxicity of the tested complexes towards different cell lines was determined by MTT assay. Cells were cultured in 96-well plates for 24 h. Cells were incubated with a series of concentrations of complexes for another 44 h. 20 μL MTT solution (5 mg/mL) was added into each well and incubated for another 4 h. Then culture media was removed and 150 μL DMSO was added into each well. The plate was shaken for 10 min. The absorbance at 595 nm was measured by a microplate reader.
For orientation: Tetrazolium assays rely on reduction of a dye to a coloured formazan, in cell work by metabolically active cells.

For data set [2], the system named is A549 cells. Kind of data set: Inhibition of autophagy by 3-MA, MTT cell viability. The format is cell-based, human. As to conditions: A549, 3-MA pre-treatment 1 h, 24 h. As for the experimental part:
Autophagy is a complicated biological process, which can play either pro-survival or pro-death roles in anticancer therapy. 3-methyladenine (3-MA), a specific class III PI3K inhibitor that can block autophagosome formation, was used to investigate the relationship between autophagy and anti-proliferative activities of 4a and 4b[51]. The anti-proliferative effects are diminished by pre-treatment of A549 cells with 3-MA (5 mM) for 1 h (Fig. 8F). Cell viabilities increase by approximately 1.09−fold and 1.13−fold for 4a (2 μM, 24 h) and 4b (2 μM, 24 h), respectively.
Cells were cultured in a 96-well plate and grown to confluence. Cells were pre-treated with or without 3-MA (5 mM) for 1 h, then incubated with the complexes at the indicated concentrations for 24 h. Cell viability was measured by MTT assay.

Data set [3] relates to MCF-7 (human breast adenocarcinoma) cells. Kind of data set: MTT cell viability assay, MCF-7. To be noted: MCF-7, MTT, 44 h + 4 h MTT; read-out: IC50 (50% inhibition of cell viability). The format is cell-based. As for the experimental part:
as §1, §2

Data set [4] has as its system HepG2 (human hepatocellular liver carcinoma) cells. Kind of data set: MTT cell viability assay, HepG2. The format is cell-based. To be noted: 44 h + 4 h MTT, read-out: IC50 (50% inhibition of cell viability). Here is the method: as §1, §2
For data set [5], the system named is A549R (cisplatin-resistant A549) cells. Kind of data set: MTT cell viability assay, A549R. It counts as cell-based, human. As to conditions: 44 h + 4 h MTT, read-out: IC50 (50% inhibition of cell viability). As for the experimental part: as §1, §2
Data set [6] concerns HeLa (human cervical cancer) cells. Kind of data set: MTT cell viability assay, HeLa. It counts as cell-based. To be noted: 44 h + 4 h MTT, read-out: IC50 (50% inhibition of cell viability). Here is the method:
as §1, §2

Data set [7] has as its system porcine liver esterase (PLE). Kind of data set: Hydrolysis by PLE in vitro (ESI-MS). As to conditions: 20 μM, 0.6 units PLE, Tris-HCl 10 mM pH 7.4, 2 h. The format is in vitro ADME. As for the experimental part:
Ester-modified compounds have been used as prodrugs widely. They can be hydrolysed by a variety of esterases selectively or non-selectively, to release active pharmacophores. Herein, porcine liver esterase (PLE) was used as a model to investigate the hydrolytic process of the ester bonds in Ir(III) complexes. The hydrolysis of ten Ir(III) complexes by PLE were detected by ESI-MS (Supplementary Fig. S14)[28]. Equal amounts of Ir(III) complexes (20 μM, 100 μL) were incubated with PLE (0.6 units) in Tris-HCl solution (10 mM, pH 7.4) for 2 h. […] Other complexes with ester substituents show peaks assigned to intact complexes as well as peaks corresponding to hydrolytic products.
Ir(III) complexes (20 μM) were dissolved in freshly prepared Tris-HCl (10 mM, pH 7.4) buffer. Each sample contained 100 μL Ir(III) solution and 0.6 units PLE. After the samples were incubated at 298 K for 2 h, 400 μL acetone (253 K) was added into each sample to quench the enzymatic hydrolysis. Then the samples were centrifuged at 15000 × g for 10 min. The supernatant was collected and analyzed by ESI-MS.

Data set [8] deals with A549 cells. Kind of data set: Cellular uptake efficacy by ICP-MS. The format is cell-based, human. To be noted: 20 μM, 1 h. Here is the method: It has been reported that cellular uptake efficacy of a compound is affected by many factors, such as lipophilicity, polarization and surface area[32]. As iridium is an exogenous element, its cellular uptake level can be quantitatively recorded by ICP-MS (inductively coupled plasma-mass spectrometry)[15]. A549 (human lung adenocarcinoma epithelial) cells were incubated with Ir(III) complexes (20 μM) for 1 h and analysed. Cell penetration capability of these complexes is correlated with the length of ester group and lipophilicity (Fig. 3B).
A549 cells were cultured in 60 mm dishes and incubated for 24 h. The medium was removed and replaced with medium-DMSO (99:1, v/v) containing Ir(III) complexes (20 μM). After 1 h incubation, cells were trypsined and collected in PBS. After counted by hemocytometer, cells were digested with HNO3 (65%, 300 μL) at room temperature for 24 h. The solution was diluted to a final volume of 10 mL with Milli-Q water containing 10 ppb In. The iridium content was measured by ICP-MS using In as the internal reference.

In data set [9] the test system is all the cell lines tested (A549, A549R, HeLa, HepG2, MCF-7). Kind of data set: Cytotoxicity across the cell line panel (MTT). It counts as cell-based, human. As for the experimental part: The cytotoxicity was evaluated in A549, A549R (cisplatin-resistant A549), HeLa (human cervical cancer), HepG2 (human hepatocellular liver carcinoma) and MCF-7 (human breast adenocarcinoma) cells. Cisplatin was also tested as a positive control. Generally, the anti-proliferative efficacy of Ir(III) complexes is in the following order: 4a ≈ 4b > 5a ≈ 5b > 3b > 3a > 2b > 2a > 1a ≈ 1b, which corresponds to their lipophilicity and cellular uptake efficacy (Table 1). […] Complexes with longer ester substitutions (4a, 5a, 4b and 5b) show much higher cytotoxicity than the other complexes. […] For complexes 1a and 1b, converting the carboxyl acid groups into ester groups can facilitate cellular uptake and improve their anti-proliferative effects. As carboxyl groups are usually deprotonated at physiological pH, the phenomena may be partially attributed to the alteration of molecular charge from neutral/negative to positive under physiological conditions.
The cytotoxicity of the tested complexes towards different cell lines was determined by MTT assay. Cells were cultured in 96-well plates for 24 h. Cells were incubated with a series of concentrations of complexes for another 44 h. 20 μL MTT solution (5 mg/mL) was added into each well and incubated for another 4 h. Then culture media was removed and 150 μL DMSO was added into each well. […] The absorbance at 595 nm was measured by a microplate reader.

Data set [10] is described as follows: Lipophilicity (log Po/w), shake-flask method with ICP-MS. The format is physicochemical. To be noted: n-octanol/PBS. As for the experimental part:
According to the Lipinski’s rule, appropriate hydrophilicity and lipophilicity are of vital importance for drugs. Excessive hydrophilicity decreases penetration ability of a drug to cross phospholipid layer membrane. On the contrary, high lipophilicity means poor water solubility, which hinders biomedical applications. The lipophilicity, as represented by the log Po/w values, was determined by the shake-flask method according to a literature procedure. The log Po/w values of these Ir(III) complexes fall between −0.81 and 2.59 (Fig. 3A).
The lipophilicity (log Po/w) was determined by the flask-shaking method and analyzed by ICP-MS. Equal amounts of PBS and n-octanol were shaken in the oscillator for 24 h. The mixture was separated to obtain oil and water phases. The mixtures were centrifuged at 3000 × g for 5 min. Equal volumes of n-octanol and PBS were added to the supernatant. The mixtures were shaken for another 24 h, and then centrifuged at 3000 × g for 5 min. The oil and water phases were separated carefully and dried under vacuum. The dried sample was dissolved by HNO3 (65%, 300 μL) and diluted to a final volume of 10 mL with Milli-Q water containing 10 ppb In. The Ir(III) concentration (Co or Cw) was measured by ICP-MS using In as the internal reference. The Po/w value corresponds to Co/Cw.

Molecules are shown by their SMILES.

Usually IC50 stands for the concentration that gives 50% inhibition.

On to `N.N.[Cl][Pt][Cl]` [cisplatin, reference compound], for which the IC50 in [1] amounted to 23.7 ± 1 µM; in [3] it was 16.8 ± 1.5 µM; in [4] it was 15.8 ± 1.2 µM; in data set [5] it was 79.4 ± 6.1 µM; in data set [6], 25.1 ± 2.2 µM. For the same molecule, in [2], the “effect of 3-MA pre-treatment on induced cell death” value is reported as “enhance cell death”.
Take `O=C([O-])c1cc[n+]2c(c1)-c1cc(C(=O)O)cc[n+]1[Ir-3]213([c]2cc(F)cc(F)c2-c2cccc[n+]21)[c]1cc(F)cc(F)c1-c1cccc[n+]13` [Complex 1b, Ir(dfppy)2(Hdcbpy)]: in data set [7], the “hydrolysis of ester bonds by PLE (ESI-MS peaks)” value is given as “remain unchanged”. Moreover, the “cellular uptake level / penetration ability” value in data set [8] was “lowest penetration ability”. In addition, the half-maximal inhibitory concentration (IC50) in [1], in data set [3], in [4], in [5] and in [6] was greater than 100 µM in each case. Moreover, the “cytotoxicity against all the cell lines tested” value in [9] was “inactive”. In addition, in data set [10], the “Lipophilicity (log Po/w)” value is recorded as -0.49.
On to `O=C([O-])c1cc[n+]2c(c1)-c1cc(C(=O)O)cc[n+]1[Ir-3]213([c]2ccccc2-c2cccc[n+]21)[c]1ccccc1-c1cccc[n+]13` [Complex 1a, Ir(ppy)2(Hdcbpy)], for which the “hydrolysis of ester bonds by PLE (ESI-MS peaks)” value in data set [7] is “remain unchanged”. For the same molecule, the “cellular uptake level / penetration ability” value in [8] was “lowest penetration ability”. Moreover, the IC50 in data set [1], in data set [3], in [4], in data set [5] and in data set [6] was greater than 100 µM each time. The “cytotoxicity against all the cell lines tested” value in data set [9] was “inactive”. In data set [10], the “Lipophilicity (log Po/w)” value is recorded as -0.81.
